Test results: PubChem BioAssay (NCI)
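Test compounds were applied to cells in 96-well plates for 48 hours at 5 doses. TGI: total growth inhibition.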

Assays:
Experiment in all cases: DTP human tumour cell line panel, 48 h
PC-3 prostate = test system: PC-3 prostate
MOLT-4 leukemia = test system: MOLT-4 leukemia
U251 CNS = test system: U251 CNS
BT-549 breast = test system: BT-549 breast
NCI/ADR-RES ovarian = test system: NCI/ADR-RES ovarian
SNB-19 CNS = test system: SNB-19 CNS
TK-10 renal = test system: TK-10 renal
CCRF-CEM leukemia = test system: CCRF-CEM leukemia
OVCAR-4 ovarian = test system: OVCAR-4 ovarian
HCT-15 colon = test system: HCT-15 colon
SK-OV-3 ovarian = test system: SK-OV-3 ovarian
MDA-MB-231 breast = test system: MDA-MB-231 breast
MDA-MB-435 = test system: MDA-MB-435
COLO 205 colon = test system: COLO 205 colon
SF-268 CNS = test system: SF-268 CNS
HT29 colon = test system: HT29 colon
SK-MEL-5 melanoma = test system: SK-MEL-5 melanoma
OVCAR-5 ovarian = test system: OVCAR-5 ovarian
SK-MEL-2 melanoma = test system: SK-MEL-2 melanoma

Measured: TGI

CCCCSC1=N/C(=C\c2ccco2)C(Cl)=N1
> 100 µM: all assays above

COc1ccc2c(c1)C(=O)OCCC2
> 100 µM: all assays above

CC(=O)N(CCc1ccccc1)C(C#N)c1ccccc1 (configuration not stated)
> 100 µM: all assays above

COc1ccc(-c2csc(Cc3nc4ccccc4c(=O)n3-c3ccc(Cl)cc3)n2)cc1
67.4 µM: MOLT-4 leukemia
77.7 µM: SNB-19 CNS
97.6 µM: HCT-15 colon
41.1 µM: SK-MEL-5 melanoma
35.3 µM: SK-MEL-2 melanoma
62.1 µM: OVCAR-5 ovarian
> 100 µM: all other assays above

CCCCCCOc1ccc(Nc2c(O)c3c(c(O)c2Cl)C(=O)C=CC3=O)cc1
> 6.11 µM: MDA-MB-231 breast
> 6.98 µM: MOLT-4 leukemia
> 8.13 µM: OVCAR-4 ovarian
> 7.46 µM: HT29 colon
3.68 µM: HCT-15 colon
8.61 µM: CCRF-CEM leukemia
> 9.63 µM: SNB-19 CNS
3.9 µM: MDA-MB-435
6.54 µM: NCI/ADR-RES ovarian
3.02 µM: SK-MEL-5 melanoma
4.15 µM: COLO 205 colon
> 6.01 µM: BT-549 breast
> 6.07 µM: U251 CNS
7.05 µM: SK-MEL-2 melanoma
> 10 µM: all other assays above

COc1ccc(NC(=O)N(C)CC2(O)CCC(C(C)(C)C)CC2)cc1 (configuration not stated)
not listed: SK-MEL-5 melanoma
> 100 µM: all other assays above

CCOC(=O)c1c(NC(=O)OC)c(C#N)c2n1CCCCC2
91.7 µM: MDA-MB-231 breast
not listed: OVCAR-5 ovarian
> 100 µM: all other assays above

Cc1cc2c(cc1C)C(=O)C1(C2)Cc2c(C)ccc(C)c2C1=O (configuration not stated)
not listed: SK-OV-3 ovarian | HT29 colon
> 100 µM: all other assays above

Nc1nc(Cl)c(N)c(NCC2(CO)CCCC2)n1
24.2 µM: SK-OV-3 ovarian
not listed: COLO 205 colon
> 100 µM: all other assays above

Nc1nc(NCC2(CO)CC2)cc(=O)[nH]1
not listed: TK-10 renal
> 100 µM: all other assays above

CC(C)CC(NC(=O)C(CI)Cc1ccccc1)C(=O)Nc1ccccc1 (configuration not stated)
57 µM: BT-549 breast
not listed: SF-268 CNS | HT29 colon
> 100 µM: all other assays above

C=C(C(=O)O)[C@@H]1C[C@@H](OC(C)=O)[C@]2(C)CC/C=C(\C)CCC[C@H](C)[C@H](O)[C@@H]1O2
59.1 µM: MDA-MB-435
72.1 µM: MOLT-4 leukemia
73.4 µM: CCRF-CEM leukemia
not listed: SNB-19 CNS
> 100 µM: all other assays above

O=C(O)c1nc2ccc(C(F)(F)F)cc2nc1NCc1ccc(F)cc1
33.2 µM: MOLT-4 leukemia
44.6 µM: COLO 205 colon
35.2 µM: SK-MEL-5 melanoma
81.4 µM: MDA-MB-231 breast
90.2 µM: BT-549 breast
82.6 µM: PC-3 prostate
45.1 µM: SK-MEL-2 melanoma
93 µM: SK-OV-3 ovarian
87.5 µM: HCT-15 colon
56.9 µM: U251 CNS
> 100 µM: NCI/ADR-RES ovarian | SNB-19 CNS | CCRF-CEM leukemia | OVCAR-4 ovarian | MDA-MB-435
42.5 µM: OVCAR-5 ovarian

O=C1c2cccc3cccc(c23)C(=O)N1CCCNCCCNCCCCNCCCNCCCN1C(=O)c2cccc3cccc(c23)C1=O
21.9 µM: OVCAR-5 ovarian
16.8 µM: SK-MEL-2 melanoma
13.4 µM: PC-3 prostate
22.4 µM: MDA-MB-231 breast
3.29 µM: CCRF-CEM leukemia
41.1 µM: SK-MEL-5 melanoma
2.84 µM: MOLT-4 leukemia
15.9 µM: SNB-19 CNS
30.9 µM: HCT-15 colon
12.9 µM: SF-268 CNS
20.2 µM: U251 CNS
46.8 µM: NCI/ADR-RES ovarian
19.1 µM: OVCAR-4 ovarian
25 µM: TK-10 renal
32.1 µM: SK-OV-3 ovarian
10.1 µM: MDA-MB-435
5.5 µM: HT29 colon
15.1 µM: BT-549 breast

COc1ccc2[nH]c3c(c2c1)CC(=S)N1CCCC(CC3=O)C1 (configuration not stated)
81.2 µM: SK-MEL-2 melanoma
not listed: MOLT-4 leukemia
> 100 µM: all other assays above

CC(C)N(C(=O)C1(O)c2ccccc2C=Cc2ccccc21)C(C)C
29.8 µM: SK-MEL-5 melanoma
35.4 µM: NCI/ADR-RES ovarian
> 100 µM: MDA-MB-435
53.9 µM: SK-OV-3 ovarian
30.5 µM: U251 CNS
36 µM: SF-268 CNS
33.4 µM: COLO 205 colon
82.8 µM: MOLT-4 leukemia
34.6 µM: BT-549 breast
30.7 µM: SK-MEL-2 melanoma
33.5 µM: HT29 colon
29.3 µM: MDA-MB-231 breast
31.9 µM: TK-10 renal
28.9 µM: PC-3 prostate
44.4 µM: SNB-19 CNS
27.9 µM: OVCAR-5 ovarian
44.6 µM: HCT-15 colon
52 µM: OVCAR-4 ovarian

COC(=O)[C@]12CCC(C)(C)C[C@H]1[C@H]1C(=O)C=C3[C@@]4(C)C=C(C#N)C(=O)C(C)(C)[C@@H]4CC[C@@]3(C)[C@]1(C)CC2
> 100 µM: CCRF-CEM leukemia
0.0392 µM: HCT-15 colon
0.469 µM: PC-3 prostate
1.56 µM: MOLT-4 leukemia
> 7.76 µM: OVCAR-4 ovarian
0.0744 µM: U251 CNS
0.243 µM: SNB-19 CNS
0.122 µM: COLO 205 colon
0.106 µM: MDA-MB-231 breast
0.187 µM: SK-MEL-2 melanoma
0.0585 µM: MDA-MB-435
0.152 µM: TK-10 renal
0.194 µM: BT-549 breast | OVCAR-5 ovarian
0.0337 µM: NCI/ADR-RES ovarian
1.1 µM: SK-OV-3 ovarian
0.109 µM: SK-MEL-5 melanoma

O=C1/C(=C/c2cccc(Br)c2)Cc2ccccc21
89.7 µM: COLO 205 colon
not listed: SK-MEL-5 melanoma
> 100 µM: all other assays above

Cc1nc2ccc(NC(=S)Nc3ccccc3)cc2c(=O)n1-c1ccccc1
not listed: CCRF-CEM leukemia | SK-OV-3 ovarian
> 100 µM: all other assays above

O=S1(=O)Cc2ccc3c4c2-c2c(ccc5ccc(c-4c25)CS(=O)(=O)C3)C1
not listed: CCRF-CEM leukemia | COLO 205 colon | SK-MEL-5 melanoma
> 100 µM: all other assays above
